The test system of assay [1] is Rat Heart Rate. Put plainly: Effect on rat heart rate (telemetry) after administration of pro-drug. The assay is classed as in vivo, Sprague Dawley rats. Set-up: key to Effect on Heart Rate: +++: Heart Rate decreased by 100-150 BPM; ++: Heart Rate decreased by 50-100 BPM; +: Heart rate decreased by 50 BPM; =/−: No reproducible effect on Heart Rate.; −: No effect on Heart Rate. Conditions: for Effect on Heart Rate: rat, oral gavage, 500 μGram dose, average of 3-6 rats. The procedure:
Adult male and female Sprague Dawley rats were implanted with transducer/emitter modules of the Data Science Telemetry system (St. Paul, Minn.) to allow continuous monitoring of heart rate (HR). At the start of the experiment, basal HR was determine for 1 hour prior to gavage. A 500 μg dose of compounds prepared according to Examples 1-4 was administered to by oral gavage. The compounds were each prepared as stock solutions in DMSO and diluted at least 1:1000 in water for gavage. Following administration, HR was determined every five minutes. In these experiments, 3-6 rats were used to test each compounds. An average of the HR results are reported in Table 1, below and in FIGS. 1A, 2A, 3A and 4A.
Compound 1, identified above is an A1 Agonist. […] Thus, this in vivo assay is a measure of effect on heart rate following the oral administration of a pro-drug of a potent adenosine A1 agonist. The plasma concentrations of compound 1 was determined over time by cannulating the jugular of a separate specimen for subsequent blood collection. After a 24 hour recovery period, a pre-dose baseline HR as determined followed by gavage or IP injection of a compound being tested. Blood samples were taken and the concentration of compound 1 in the plasma was determined using LC/MS/MS methodologies.

In assay [2] the test system is Rat Heart Rate. Described as above. The assay is classed as in vivo, Sprague Dawley rats. The conditions noted are these: for decrease in heart rate: oral gavage, dose of 0.5 mg/kg.
Another assay addresses T1, adenosine A1 (Homo sapiens, UniProt P30542).
T1 sequence (P30542 1-326): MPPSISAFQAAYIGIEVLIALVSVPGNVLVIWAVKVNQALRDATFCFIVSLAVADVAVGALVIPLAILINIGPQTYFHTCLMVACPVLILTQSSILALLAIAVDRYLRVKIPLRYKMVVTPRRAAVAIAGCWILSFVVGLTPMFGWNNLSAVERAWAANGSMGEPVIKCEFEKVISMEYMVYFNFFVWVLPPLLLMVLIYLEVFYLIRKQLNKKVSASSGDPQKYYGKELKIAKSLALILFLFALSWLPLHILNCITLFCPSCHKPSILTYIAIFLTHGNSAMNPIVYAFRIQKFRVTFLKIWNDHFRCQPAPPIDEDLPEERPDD
The conditions noted are these: from Snowdy et al. abstract and WO 98/08855; cited from earlier work.

On to `O=C(Cc1ccc([N+](=O)[O-])cc1)OC[C@H]1OC(n2cnc3c(N[C@@H]4CCOC4)ncnc32)[C@H](OC(=O)Cc2ccc([N+](=O)[O-])cc2)[C@@H]1OC(=O)Cc1ccc([N+](=O)[O-])cc1` (stereo partly shown) [Compound 11], for which, in the assay with Rat Heart Rate [1], the “Effect on Heart Rate” value is given as “−”.
The same measure, in the same setting: with `O=C(COCc1ccccc1)OC[C@H]1OC(n2cnc3c(N[C@@H]4CCOC4)ncnc32)[C@H](OC(=O)COCc2ccccc2)[C@@H]1OC(=O)COCc1ccccc1` (stereo partly drawn) [Compound 10, (5-{6-[((3R)oxolan-3-yl)amino]purin-9-yl}(2R, 3R, 4R)-3,4-bis[2-(phenylmethoxy)acetyloxy]oxolan-2-yl)methyl 2-(phenylmethoxy)acetate] the entry was “+ (Heart rate decreased by 50 BPM)”; with `CC(C)C(=O)O[C@@H]1[C@@H](COC(=O)C2CCCC2)OC(n2cnc3c(N[C@@H]4CCOC4)ncnc32)[C@@H]1OC(=O)C(C)C` (stereo partly drawn) [Compound 17, 2-{6-[((3R)oxolan-3-yl)amino]purin-9-yl}(3R, 4R, 5R)-5-(cyclopentylcarbonyloxymethyl)-4-(2-methylpropanoyloxy)oxolan-3-yl 2-methylpropanoate], “−”; with `CC(=O)OC[C@H]1OC(n2cnc3c(NC4CCOC4)ncnc32)[C@H](OC(=O)C2CCCC2)[C@@H]1OC(=O)C1CCCC1` (stereo partly shown) [Compound 16], “+ (Heart rate decreased by 50 BPM)”.
Same read-out and setting: under `NCC(=O)OC[C@H]1OC(n2cnc3c(N[C@@H]4CCOC4)ncnc32)[C@H](OC(=O)CN)[C@@H]1OC(=O)CN` (stereo partly drawn) [Compound 12, 2-{6[((3R)oxolan-3-yl)amino]purin-9-yl}(3R, 4R, 5R)-4-(2-aminoacetyloxy)-5-[(2-aminoacetyloxy)methyl]oxolan-3-yl 2-aminoacetate] stands “−”; under `CCC(=O)OC[C@H]1OC(n2cnc3c(N[C@@H]4CCOC4)ncnc32)[C@H](OC(=O)CC)[C@@H]1OC(=O)CC` (stereo partly drawn) [Compound 7, (2-{6-[((3R)oxolan-3-yl)amino]purin-9-yl}(3R, 4R, 5R)-4-propanoyloxy-5-(propanoyloxymethyl)oxolan-3-yl propanoate], “+ (Heart rate decreased by 50 BPM)”.
Regarding `OC[C@H]1O[C@@H](n2cnc3c(N[C@@H]4CCOC4)ncnc32)[C@H](O)[C@@H]1O` [Compound 1], the “effect on heart rate of the sinus rhythm” value in the assay with Rat Heart Rate [2] (rat, IP, 0.025 mg) is “lowers the heart rate”. The “adenosine A1 agonist activity” value on adenosine A1 is given as “potent, selective adenosine A1 agonist”.
Take `CC(=O)OC[C@H]1OC(n2cnc3c(N[C@@H]4CCOC4)ncnc32)[C@H](OC(=O)C(C)C)[C@@H]1OC(=O)C(C)C` (stereo partly drawn) [Compound 15, 2-{6-[((3R)oxolan-3-yl)amino]purin-9-yl}(3R, 4R, 5R)-5-(acetyloxymethyl)-4-(2-methylpropanoyloxy)oxolan-3-yl 2-methylpropanoate]: the “Effect on Heart Rate” value in the assay with Rat Heart Rate [1] is given as “+++ (Heart Rate decreased by 100-150 BPM)”. Also, the “decrease in heart rate” value in the assay on Rat Heart Rate [2] (rats) is 100-150 beats per minute.
For the compound `CC(C)C(=O)OC[C@H]1OC(n2cnc3c(NC4CCOC4)ncnc32)[C@H](OC(=O)C2CCCC2)[C@@H]1OC(=O)C1CCCC1` (stereo partly shown) [Compound 20], the “Effect on Heart Rate” value in the assay with Rat Heart Rate [1] is “−”.
On the same count and under the same terms, under `CC(C)C(=O)OC[C@H]1OC(n2cnc3c(N[C@@H]4CCOC4)ncnc32)[C@H](OC(=O)C(C)C)[C@@H]1OC(=O)C(C)C` (stereo partly drawn) [Compound 6, (5-{6-[((3R)oxolan-3-yl)amino]purin-9-yl}(2R, 3R, 4R)-3,4-bis(2-methylpropanoyloxy)oxolan-2-yl)methyl 2-methylpropanoate] stands “++ (Heart Rate decreased by 50-100 BPM)”.
With `CC(=O)O[C@@H]1[C@@H](COC(=O)C(C)C)OC(n2cnc3c(N[C@@H]4CCOC4)ncnc32)[C@@H]1OC(C)=O` (stereo partly drawn) [Compound 19, (5-{6-[((3R)oxolan-3-yl)amino]purin-9-yl}(2R, 3R, 4R)-3,4-diacetyloxyoxolan-2-yl)methyl 2-methylpropanoate], the “Effect on Heart Rate” value in the assay on Rat Heart Rate [1] is “+++ (Heart Rate decreased by 100-150 BPM)”. Also, the “decrease in heart rate” value in the assay on Rat Heart Rate [2] (rats) is recorded as 100-150 beats per minute.
With `CC(=O)OC[C@H]1OC(n2cnc3c(N[C@@H]4CCOC4)ncnc32)[C@H](OC(C)=O)[C@@H]1OC(C)=O` (stereo partly drawn) [Compound 2, (5-{6-[((3R)oxolan-3-yl)amino]purin-9-yl}(2R, 3R, 4R)-3,4-diacetyloxyoxolan-2-yl)methyl acetate], the “Effect on Heart Rate” value in the assay with Rat Heart Rate [1] was “+++ (Heart Rate decreased by 100-150 BPM)”. For the same compound, in the assay on Rat Heart Rate [2] (rats, oral gavage 0.5 mg/kg, then theophylline 7.5 mg/kg), the “reversibility of effect on heart rate by theophylline” value is reported as “reversible”. For the same compound, the “decrease in heart rate” value in the assay on Rat Heart Rate [2] (rats) is reported as 100-150 beats per minute.
Regarding `O=C(OC[C@H]1OC(n2cnc3c(N[C@@H]4CCOC4)ncnc32)[C@H](OC(=O)C2CCCC2)[C@@H]1OC(=O)C1CCCC1)C1CCCC1` (stereo partly drawn) [Compound 8, 2-{6-[((3R)oxolan-3-yl)amino]purin-9-yl}(3R, 4R, 5R)-4-cyclopentylcarbonyloxy-5-(cyclopentylcarbonyloxymethyl)oxolan-3-yl cyclopentanecarboxylate], the “Effect on Heart Rate” value with Rat Heart Rate [1] is listed as “+++ (Heart Rate decreased by 100-150 BPM)”. Further, in the assay on Rat Heart Rate [2] (rats), the “decrease in heart rate” value is on record as 100-150 beats per minute.
As for `O=C(OC[C@H]1OC(n2cnc3c(N[C@@H]4CCOC4)ncnc32)[C@H](OC(=O)c2cccnc2)[C@@H]1OC(=O)c1cccnc1)c1cccnc1` (stereo partly drawn) [Compound 14, (5-{6-[((3R)oxolan-3-yl)amino]purin-9-yl}(2R, 3R, 4R)-3,4-di(3-pyridylcarbonyloxy)oxolan-2-yl)methyl pyridine-3-carboxylate], the “Effect on Heart Rate” value with Rat Heart Rate [1] is recorded as “+ (Heart rate decreased by 50 BPM)”.
With `CCOCC(=O)OC[C@H]1OC(n2cnc3c(N[C@@H]4CCOC4)ncnc32)[C@H](OC(=O)COCC)[C@@H]1OC(=O)COCC` (stereo partly drawn) [Compound 9, 2-{6-[((3R)oxolan-3-yl)amino]purin-9-yl}(3R, 4R, 5R)-4-(2-ethoxyacetyloxy)-5-[(2-ethoxyacetyloxy)methyl]oxolan-3-yl 2-ethoxyacetate], the “Effect on Heart Rate” value in the assay with Rat Heart Rate [1] is given as “++ (Heart Rate decreased by 50-100 BPM)”.
Consider `CC(=O)O[C@@H]1[C@H](OC(C)=O)[C@@H](COC(=O)[C@@H](N)C(C)C)O[C@H]1n1cnc2c(N[C@@H]3CCOC3)ncnc21` [Compound 21, (5-{6-[((3R)oxolan-3-yl)amino]purin-9-yl}(2R, 3R, 4R)-3,4-diacetyloxyoxolan-2-yl)methyl (2S)-2-amino-3-methylbutanoate], for which the “Effect on Heart Rate” value in the assay on Rat Heart Rate [1] is listed as “+ (Heart rate decreased by 50 BPM)”.
On the same count and under the same terms, with `CC(C)[C@H](N)C(=O)OC[C@H]1O[C@@H](n2cnc3c(N[C@@H]4CCOC4)ncnc32)[C@H](O)[C@@H]1O` [Compound 28, (5-{6-[((3R)oxolan-3-yl)amino]purin-9-yl}(2R, 3S, 4R)-3,4-dihydroxyoxolan-2-yl)methyl (2S)-2-amino-3-methylbutanoate] the entry was “−”.
Consider `O=C(Cc1ccccc1)OC[C@H]1OC(n2cnc3c(N[C@@H]4CCOC4)ncnc32)[C@H](OC(=O)Cc2ccccc2)[C@@H]1OC(=O)Cc1ccccc1` (stereo partly drawn) [Compound 13, (5-{6-[((3R)oxolan-3-yl)amino]purin-9-yl}(2R, 3R, 4R)-3,4-bis(2-phenylethanoyloxy)oxolan-2-yl)methyl 2-phenylethananoate], for which, in the assay on Rat Heart Rate [1], the “Effect on Heart Rate” value is “−”.
Still for that read-out and setting: with `CCCC(=O)OC[C@H]1OC(n2cnc3c(N[C@@H]4CCOC4)ncnc32)[C@H](OC(=O)CCC)[C@@H]1OC(=O)CCC` (stereo partly drawn) [Compound 4, (5-{6-[((3R)oxolan-3-yl)amino]purin-9-yl}(2R, 3R, 4R)-3,4-dibutanoyloxyoxolan-2-yl)methyl butanoate] the entry was “+ (Heart rate decreased by 50 BPM)”.
Still for that read-out and setting: with `CC(=O)OC[C@H]1OC(n2cnc3c(N[C@@H]4CCOC4)ncnc32)[C@H](O)[C@@H]1O` (stereo partly drawn) [Compound 34, (5-{6-[((3R)oxolan-3-yl)amino]purin-9-yl}(3S, 2R, 4R)-3,4-dihydroxyoxolan-2-yl)methyl acetate] the entry was “−”.
In the case of `CC(=O)O[C@@H]1[C@@H](COC(=O)C2CCCC2)OC(n2cnc3c(N[C@@H]4CCOC4)ncnc32)[C@@H]1OC(C)=O` (stereo partly drawn) [Compound 18, 2-{6-[((3R)oxolan-3-yl)amino]purin-9-yl}(3R, 4R, 5R)-4-acetyloxy-5-(cyclopentylcarbonyloxymethyl)oxolan-3-yl acetate], the “Effect on Heart Rate” value with Rat Heart Rate [1] was “+ (Heart rate decreased by 50 BPM)”.
With `CC(=O)O[C@@H]1[C@@H](CO)OC(n2cnc3c(N[C@@H]4CCOC4)ncnc32)[C@@H]1OC(C)=O` (stereo partly drawn) [Compound 31, 2-{6-[((3R)oxolan-3-yl)amino]purin-9-yl}(3R, 4R, 5R)-4-acetyloxy-5-(hydroxymethyl)oxolan-3-yl acetate], in the assay on Rat Heart Rate [1] (rats, oral dosing, compared with the triple pro-drugs (Table 1)), the “activity upon oral dosing in rats” value was “lower activity”.

These data come from US6576619B2 (CV Therapeutics, Inc., priority 1999, dated 2003).
